Measured values published in publication PMC6272171 (2015).

Assays:
[1] = test system: TBA (DNA, G4) GGTTGGTGTGGTTGG; assay: UV-Vis titration, Scatchard; conditions: 100 mM KCl; 50 mM Tris-HCl pH 7.4, 25 °C
[2] = test system: a-core (DNA, G4) AGGGTTAGGGTTAGGGTTAGGG; assay: UV-Vis titration, Scatchard; conditions: 50 mM Tris-HCl pH 7.4, 25 °C
[3] = test system: a-coreTT (DNA, G4) AGGGTTAGGGTTAGGGTTAGGGTT; assay: UV-Vis titration, Scatchard; conditions: 100 mM KCl; 50 mM Tris-HCl pH 7.4, 25 °C
[4] = test system: dsDNA (DNA, duplex) GGGAGGTTTCGC/GCGAAACCTCCC; assay: UV-Vis titration, Scatchard; conditions: 100 mM KCl; 50 mM Tris-HCl pH 7.4, 25 °C; 0.60 ± 0.08 in 100 mM NaCl
[5] = test system: dsDNA (DNA, duplex) GGGAGGTTTCGC/GCGAAACCTCCC; assay: UV melting, 260 nm; conditions: 100 mM KCl, 50 mM Tris-HCl pH 7.4, same value in NaCl
[6] = test system: a-core (DNA, G4) AGGGTTAGGGTTAGGGTTAGGG; assay: CD melting, 290 nm; conditions: 50 mM Tris-HCl pH 7.4, 3.0 µM compound, 1.5 µM DNA
[7] = test system: c-myc (DNA, G4) TGAGGGTGGGGAGGGTGGGGAA; assay: UV-Vis titration, Scatchard; conditions: 100 mM KCl; 50 mM Tris-HCl pH 7.4, 25 °C
[8] = test system: c-kit (DNA, G4) AGGGAGGGCGCTGGGAGGAGGAGGG; assay: UV-Vis titration, Scatchard; conditions: 100 mM KCl; 50 mM Tris-HCl pH 7.4, 25 °C
[9] = test system: a-coreTT (DNA, G4) AGGGTTAGGGTTAGGGTTAGGGTT; assay: CD melting, 290 nm; conditions: 100 mM KCl; 50 mM Tris-HCl pH 7.4; 3.0 µM compound, 1.5 µM DNA
[10] = test system: c-myc (DNA, G4) TGAGGGTGGGGAGGGTGGGGAA; assay: CD melting, 262 nm; conditions: 5 mM KCl; 50 mM Tris-HCl pH 7.4; 3.0 µM compound, 1.5 µM DNA
[11] = test system: c-kit (DNA, G4) AGGGAGGGCGCTGGGAGGAGGAGGG; assay: CD melting, 262 nm; conditions: 20 mM KCl; 50 mM Tris-HCl pH 7.4; 3.0 µM compound, 1.5 µM DNA
[12] = test system: TBA (DNA, G4) GGTTGGTGTGGTTGG; assay: CD melting, 290 nm; conditions: 100 mM KCl; 50 mM Tris-HCl pH 7.4; 3.0 µM compound, 1.5 µM DNA
[13] = test system: F21T (DNA, G4) GGGTTAGGGTTAGGGTTAGGG; assay: FRET melting; conditions: 150 mM KCl; 100 mM Tris-HCl pH 7.4; 0.4 µM compound, 0.2 µM F21T

| Structure (SMILES) | K [1] | K ([2]; 100 mM KCl) | K ([2]; 100 mM NaCl) | K [3] | K [4] | ∆Tm ([5]; 2:1 ligand:DNA) [°C] | ∆Tm ([6]; 100 mM KCl) [°C] | ∆Tm ([6]; 100 mM NaCl) [°C] | K [7] | K [8] | ∆Tm [9] [°C] | ∆Tm [10] [°C] | ∆Tm [11] [°C] | ∆Tm [12] [°C] | ∆Tm ([5]; 2:1 ligand:DNA in table (text: 1-fold)) [°C] | Tm increase [13] [°C] |
| --- | --- | --- | --- | --- | --- | --- | --- | --- | --- | --- | --- | --- | --- | --- | --- | --- |
| CN(C)CCCN1C(=O)c2ccc3c4c(ccc(c24)C1=O)C(=O)N(CCCN(C)C)C3=O | 0.49 ± 0.04 × 10^6 M^-1 | 1.6 ± 0.2 × 10^6 M^-1 | 0.73 ± 0.09 × 10^6 M^-1 | 1.9 ± 0.3 × 10^6 M^-1 | 0.60 ± 0.04 × 10^6 M^-1 | 12 | 5 | 1 | 1.5 ± 0.2 × 10^6 M^-1 | 0.74 ± 0.05 × 10^6 M^-1 | – | – | – | – | – | – |
| CN1CCCNC(=O)c2ccc(cc2)C(=O)NCCCN(C)CCCN2C(=O)c3ccc4c5c(ccc(c35)C2=O)C(=O)N(CCC1)C4=O | 3.5 ± 0.2 × 10^6 M^-1 | 10 ± 0.5 × 10^6 M^-1 | 1.0 ± 0.04 × 10^6 M^-1 | 6.1 ± 0.4 × 10^6 M^-1 | – | – | 15 | – | 4.0 ± 0.3 × 10^6 M^-1 | 1.9 ± 0.18 × 10^6 M^-1 | 18 | 15 | 11 | 11 | 0.3 | 11 |
